± gives the expanded uncertainty stated by the source.
Key:
[1] = Molar enthalpy of transition or fusion; settings: Crystal; DSC
[2] = Crystal; DTA

Molar enthalpy of transition or fusion [1]: 6.81 ± 0.191 kcal/mol
Normal melting temperature [2]: 148.6 ± 0.5 °C
SMILES: CC(C)CCC[C@@H](C)[C@H]1CC[C@H]2[C@@H]3CC=C4C[C@@H](O)CC[C@]4(C)[C@H]3CC[C@]12C [.DELTA.5-cholesten-3β-ol]
